Test results as given in publication PMC4019636, “Rational Design of Berberine-Based FtsZ Inhibitors with Broad-Spectrum Antibacterial Activity” (PLoS ONE, 2014).

These compounds were tested on B. subtilis 168 (assay: Antimicrobial susceptibility assay (broth microdilution MIC)). Conditions: Bacillus subtilis; B. subtilis 168; Mueller Hinton broth, 18 h at 37°C; growth inhibited by ≥90%; read-out: MIC.
Assay type: cell-based
Text: (§1) The bacterial strains S. aureus ATCC 29213, S. aureus ATCC 29247, S. aureus ATCC BAA-41, E. faecium ATCC 49624, E. faecium ATCC 700221, E. faecalis ATCC 29212, S. epidermidis ATCC 12228, E. coli ATCC 25922, and K. pneumoniae ATCC BAA-1144 used in the antimicrobial susceptibility assays were purchased from American Type Culture Collection (ATCC, USA). B. subtilis strain 168 was already available in our in-house collection. E. coli JM109 WM647 was kindly provided by Dr. W. Margolin (University of Texas-Houston Medical School). FM 4–64 was purchased from Invitrogen (Eugene, Oregon). All other chemicals and reagents were purchased from Sigma-Aldrich. Stock solutions were prepared in DMSO. The final percentage of DMSO in the assays was 1% (v/v) for all experiments.
(§2) Antimicrobial susceptibility tests were conducted in 96-well microplates using the broth microdilution procedure described in the Clinical and Laboratory Standards Institute (CLSI) guidelines. Cation-adjusted Mueller Hinton broth for S. aureus strain ATCC 29213, methicillin-resistant S. aureus strain ATCC BAA-41 and ampicillin-resistant S. aureus strain ATCC 29247, or brain heart infusion broth for antibiotic-susceptible E. faecium strain ATCC 49624 and vancomycin-resistant E. faecium strain ATCC 700221, or Mueller Hinton broth for antibiotic-susceptible strains B. subtilis strain 168, E. faecalis strain ATCC 29212 and E. coli strain ATCC 25922 were used in the assays. After incubation for 18 h at 37°C, the absorbance at 600 nm (A600) was recorded using a microplate reader (Bio-Rad laboratory Ltd., UK) and the percentage of bacterial cell inhibition with respect to vehicles (1% DMSO) was calculated. The MIC was defined as the lowest compound concentration at which the growth of bacteria was inhibited by ≥90%. Three independent assays were performed for each test.
For `COc1ccc2cc3[n+](cc2c1OCCCOc1ccc(Cl)cc1)CCc1cc2c(cc1-3)OCO2` [Compound 2], the MIC was 4 mg/L.
In the case of `COc1ccc2cc3[n+](cc2c1OCCCOc1ccccc1)CCc1cc2c(cc1-3)OCO2` [Compound 1], the MIC was 8 mg/L.
Compound `COc1ccc(OCCCOc2c(OC)ccc3cc4[n+](cc23)CCc2cc3c(cc2-4)OCO3)cc1` [Compound 3] has an MIC of 8 mg/L.

These compounds were tested on E. coli ATCC 25922 in the same assay as above. Conditions: Escherichia coli, ATCC25922; E. coli ATCC 25922; Mueller Hinton broth, 18 h at 37°C; growth inhibited by ≥90%; read-out: MIC.
Assay type: cell-based
Text: as §1, §2
For `COc1ccc2cc3[n+](cc2c1OCCCOc1ccc(Cl)cc1)CCc1cc2c(cc1-3)OCO2` [Compound 2], the MIC was 32 mg/L.
`COc1ccc2cc3[n+](cc2c1OCCCOc1ccccc1)CCc1cc2c(cc1-3)OCO2` [Compound 1] showed an MIC of 96 mg/L.
`COc1ccc(OCCCOc2c(OC)ccc3cc4[n+](cc23)CCc2cc3c(cc2-4)OCO3)cc1` [Compound 3] gave an MIC of 128 mg/L.

What follows are compounds tested on E. faecalis ATCC 29212 in the same assay as above. Conditions: Enterococcus faecalis, ATCC29212; E. faecalis ATCC 29212; Mueller Hinton broth, 18 h at 37°C; growth inhibited by ≥90%; read-out: MIC.
Assay type: cell-based
Text: as §1, §2
`COc1ccc2cc3[n+](cc2c1OCCCOc1ccc(Cl)cc1)CCc1cc2c(cc1-3)OCO2` [Compound 2] gave an MIC of 4 mg/L.
Compound `COc1ccc2cc3[n+](cc2c1OCCCOc1ccccc1)CCc1cc2c(cc1-3)OCO2` [Compound 1] has an MIC of 16 mg/L.
With `COc1ccc(OCCCOc2c(OC)ccc3cc4[n+](cc23)CCc2cc3c(cc2-4)OCO3)cc1` [Compound 3] the MIC was 32 mg/L.

Each compound was assayed on K. pneumoniae ATCC BAA-1144 in the same assay as above. Conditions: Klebsiella pneumoniae, ATCCBAA1144; K. pneumoniae ATCC BAA-1144 (Gram-negative, expressing AmpC β-lactamase); 18 h at 37°C; growth inhibited by ≥90%; read-out: MIC.
Assay type: cell-based
Text: as §1, §2
Work on `COc1ccc2cc3[n+](cc2c1OCCCOc1ccc(Cl)cc1)CCc1cc2c(cc1-3)OCO2` [Compound 2] yielded an MIC of 64 mg/L.
Work on `COc1ccc2cc3[n+](cc2c1OCCCOc1ccccc1)CCc1cc2c(cc1-3)OCO2` [Compound 1] yielded an MIC of 128 mg/L.
`COc1ccc(OCCCOc2c(OC)ccc3cc4[n+](cc23)CCc2cc3c(cc2-4)OCO3)cc1` [Compound 3] showed an MIC of 128 mg/L.

These compounds were tested on S. aureus ATCC 29213 in the same assay as above. Conditions: Staphylococcus aureus, ATCC29213; S. aureus ATCC 29213; cation-adjusted Mueller Hinton broth, 18 h at 37°C; growth inhibited by ≥90%; read-out: MIC.
Assay type: cell-based
Text: as §1, §2
`COc1ccc2cc3[n+](cc2c1OCCCOc1ccc(Cl)cc1)CCc1cc2c(cc1-3)OCO2` [Compound 2] was tested, and the MIC was 2 mg/L.
Work on `COc1ccc2cc3[n+](cc2c1OCCCOc1ccccc1)CCc1cc2c(cc1-3)OCO2` [Compound 1] yielded an MIC of 4 mg/L.
`COc1ccc(OCCCOc2c(OC)ccc3cc4[n+](cc23)CCc2cc3c(cc2-4)OCO3)cc1` [Compound 3] was tested, and the MIC was 8 mg/L.

These compounds were tested on S. aureus ATCC 29247 in the same assay as above. Conditions: Staphylococcus aureus, ATCC29247; S. aureus ATCC 29247 (ampicillin-resistant); 18 h at 37°C; growth inhibited by ≥90%; read-out: MIC.
Assay type: cell-based
Text: as §1, §2
In the case of `COc1ccc2cc3[n+](cc2c1OCCCOc1ccc(Cl)cc1)CCc1cc2c(cc1-3)OCO2` [Compound 2], the MIC was 2 mg/L.
For `COc1ccc2cc3[n+](cc2c1OCCCOc1ccccc1)CCc1cc2c(cc1-3)OCO2` [Compound 1], the MIC was 4 mg/L.
`COc1ccc(OCCCOc2c(OC)ccc3cc4[n+](cc23)CCc2cc3c(cc2-4)OCO3)cc1` [Compound 3] was tested, and the MIC was 8 mg/L.

Each compound was assayed on S. aureus ATCC BAA-41 in the same assay as above. Conditions: Staphylococcus aureus, ATCCBAA41; S. aureus ATCC BAA-41 (methicillin-resistant); 18 h at 37°C; growth inhibited by ≥90%; read-out: MIC.
Assay type: cell-based
Text: as §1, §2
Work on `COc1ccc2cc3[n+](cc2c1OCCCOc1ccc(Cl)cc1)CCc1cc2c(cc1-3)OCO2` [Compound 2] yielded an MIC of 2 mg/L.
Work on `COc1ccc2cc3[n+](cc2c1OCCCOc1ccccc1)CCc1cc2c(cc1-3)OCO2` [Compound 1] yielded an MIC of 4 mg/L.
Work on `COc1ccc(OCCCOc2c(OC)ccc3cc4[n+](cc23)CCc2cc3c(cc2-4)OCO3)cc1` [Compound 3] yielded an MIC of 8 mg/L.

The compounds below were run on S. epidermidis ATCC 12228 in the same assay as above. Conditions: Staphylococcus epidermidis, ATCC12228; S. epidermidis ATCC 12228; 18 h at 37°C; growth inhibited by ≥90%; read-out: MIC.
Assay type: cell-based
Text: as §1, §2
`COc1ccc2cc3[n+](cc2c1OCCCOc1ccc(Cl)cc1)CCc1cc2c(cc1-3)OCO2` [Compound 2] gave an MIC of 2 mg/L.
`COc1ccc2cc3[n+](cc2c1OCCCOc1ccccc1)CCc1cc2c(cc1-3)OCO2` [Compound 1] was tested, and the MIC was 4 mg/L.
For `COc1ccc(OCCCOc2c(OC)ccc3cc4[n+](cc23)CCc2cc3c(cc2-4)OCO3)cc1` [Compound 3], the MIC was 4 mg/L.

Each compound was assayed on antibiotic-susceptible and antibiotic-resistant S. aureus strains (assay: Antimicrobial susceptibility assay, summary over S. aureus strains). Conditions: Staphylococcus aureus.
Assay type: cell-based
Text: as §1, §2
Work on `COc1ccc2cc3[n+](cc2c1OCCCOc1ccc(Cl)cc1)CCc1cc2c(cc1-3)OCO2` [Compound 2] yielded an MIC of 2 to 8 mg/L.
For `COc1ccc2cc3[n+](cc2c1OCCCOc1ccccc1)CCc1cc2c(cc1-3)OCO2` [Compound 1], the MIC was 2 to 8 mg/L.
Work on `COc1ccc(OCCCOc2c(OC)ccc3cc4[n+](cc23)CCc2cc3c(cc2-4)OCO3)cc1` [Compound 3] yielded an MIC of 2 to 8 mg/L.

Each compound was assayed on vancomycin-susceptible and vancomycin-resistant E. faecium (assay: Antimicrobial susceptibility assay, summary over E. faecium strains). Conditions: Enterococcus faecium.
Assay type: cell-based
Text: as §1, §2
`COc1ccc2cc3[n+](cc2c1OCCCOc1ccc(Cl)cc1)CCc1cc2c(cc1-3)OCO2` [Compound 2] gave an MIC of 4 to 16 mg/L.
`COc1ccc2cc3[n+](cc2c1OCCCOc1ccccc1)CCc1cc2c(cc1-3)OCO2` [Compound 1] showed an MIC of 4 to 16 mg/L.
In the case of `COc1ccc(OCCCOc2c(OC)ccc3cc4[n+](cc23)CCc2cc3c(cc2-4)OCO3)cc1` [Compound 3], the MIC was 4 to 16 mg/L.

Each compound was assayed on Gram-negative strains E. coli and K. pneumoniae (expressing AmpC β-lactamase) (assay: Antimicrobial susceptibility assay, summary over Gram-negative strains). Conditions: Escherichia coli; Gram-negative strains E. coli and K. pneumoniae; read-out: MIC values.
Assay type: cell-based
Text: as §1, §2
For `COc1ccc2cc3[n+](cc2c1OCCCOc1ccc(Cl)cc1)CCc1cc2c(cc1-3)OCO2` [Compound 2], the MIC was 32 to 128 mg/L.
In the case of `COc1ccc2cc3[n+](cc2c1OCCCOc1ccccc1)CCc1cc2c(cc1-3)OCO2` [Compound 1], the MIC was 32 to 128 mg/L.
`COc1ccc(OCCCOc2c(OC)ccc3cc4[n+](cc23)CCc2cc3c(cc2-4)OCO3)cc1` [Compound 3] gave an MIC of 32 to 128 mg/L.
